We go through 3 substances from patent publication US20260125686A1, “COMPOSITIONS AND METHODS FOR MODULATION OF CFTR” (Cystic Fibrosis Foundation, priority 2022, published 2026).

The data set has as its system Exon 22 truncated CFTR mRNA. The experiment in a line: ddPCR of Exon 22 truncated CFTR mRNA in 16HBEge-W1282X cells. The settings on record: for Exon 22 truncated CFTR mRNA: 16HBEge-W1282X (FIG. 13A); for expression of Exon 22 truncated CFTR mRNA enhanced by: ASO alone vs no ASO treatment (FIG. 13A); for fold change increase in E22 trunc mRNA levels relative to (−) ASO (100 μM): in combination SA-08 10 μM. In kind it is cell-based, human. The method, then: Free uptake ASO treatments in 16HBEs. Steric blocking ASOs were purchased from IDT with Phosphorothioate (PS) backbone and 2-O-Methoxyethyl (2′-MOE) modifications at each nucleotide. Lyophilized steric blocking ASOs were resuspended in PBS+Mg+Ca to 1 mM and stored in frozen aliquots to minimize the effects of freeze thaw cycles. 16HBEge and 16HBE14o- lines were seeded at 0.150×10^6 cells/well in 24 well plates and grown at 37° C./5% CO2 in MEM supplemented with 10% FBS and 1% Penicil-lin/Streptomycin. After 24 hours, media was refreshed with addition of ASOs and RNA was harvested after 48 hours of treatment.
ddPCR Isoform Quantification. RNA was isolated from treated cells with the Aurum Total RNA Mini Kit. One Step reverse transcriptase and quantitative PCR was performed with the iTaq Universal Probes One Step Kit. All qPCR was run on the CFX Touch Deep Well real-time PCR detection system and analyzed with Bio-Rad CFX Maestro 1.0 software (version 4.0.2325.0418). ddPCR assays were composed of: cDNA or digested genomic DNA, 2×ddPCR Supermix for Probes (no dUTP) (1× final) (Bio-Rad), 40× as-say (1× final), and nuclease free water in 20 μl total reaction volume. cDNA synthesis was performed with the iScript Advanced cDNA Synthesis Kit for RT-qPCR (Bio-Rad). Droplets were generated with QX200 Droplet Digital PCR System (Bio-Rad), cycled in the CFX Touch Deep Well real-time PCR detec-tion system (Bio-Rad), and analyzed with the QX200 Droplet Digital PCR system Droplet Reader. (Bio-Rad). Data was analyzed with the Quantasoft software version 1.7.4. ddPCR probes designed to the junction of exon 25/26 were used as a proxy of full-length WT or W1282X CFTR mRNA and probes de-signed to exon 22/intron 22 junction including the first 140 bp of intron 22 were used as a proxy of ex-on 22 truncated CFTR mRNA.
16HBEge-W1282X cells were treated with exemplary ASOs according to some embodiments of the present disclosure. In some cases, the exemplary ASOs were administered at various doses alone, in combination with other ASOs at various doses, or co-administered with Trikafta, and a plurality of assays were used to assess the effects of the ASO treatments in 16HBEge-W1282X cells.
Exon 22 truncated CFTR mRNA was assayed using ddPCR, as depicted in FIGS. 13A-13B. 16HBEge-W1282X cells were treated with SA08 alone, SD10 alone, or SA08 in combination with SD10 at various doses, in the presence of DMSO vehicle control or Trikafta. As depicted in FIG. 13A, Exon 22 truncated CFTR mRNA was increased in all groups treated with exemplary ASO(s) compared to no ASO treatment. Separate treatment of SA08 alone and SD10 alone enhanced the expression of Exon 22 truncated CFTR mRNA by about 100% and by over 200%, from less than 20000 copies per 40 ng RNA to about 30000 copies and about 65000 copies per 40 ng RNA, respectively. The combination of SA08 and SD10 further enhanced the expression of Exon 22 truncated CFTR mRNA to about 80000 copies per 40 ng RNA. […] Full length CFTR W1282X mRNA levels were unchanged in SD-10 & SA-08 or combination treatment compared to untreated or (−) ASO (100 μM) control. (−) ASO (100 μM) E22 trunc mRNA levels were also unchanged compared to untreated cells. […] SD-10 & SA-08 or combination treatments induced a 4.5×, 5.1×, 6.6×, and 7.3× fold change increase in E22 trunc mRNA levels relative to (−) ASO (100 μM) with SD-10 (10 μM), SD-10 (100 μM), SD-10 (10 μM) & SA-08 (10 μM), and SD-10 (100 μM) & SA-08 (10 μM) respectively.

For the substance “aaagcaagcagtgttcaaatct (antisense AAAGCAAGCAGTGTTCAAATCT; all 2'-MOE, all phosphorothioate, methylation of C not given here) [SD10, PS backbone, 2′-MOE]”, the “Exon 22 truncated CFTR mRNA” value is “about 65000 copies per 40 ng RNA”. Moreover, for the setting “16HBEge-W1282X”, the “amount of Exon 22 truncated CFTR mRNA compared to no ASO treatment” value (“amount … compared to no ASO treatment” below) is listed as “increased” and the “expression of Exon 22 truncated CFTR mRNA enhanced by” value is “over 200%”. The “amount … compared to no ASO treatment” value (16HBEge-W1282X, listed as SD-10) is reported as “significantly increase”. Where the note is “SD-10 10 μM, 16HBEge-W1282X”, the “fold change increase in E22 trunc mRNA levels relative to (−) ASO (100 μM)” value is on record as 4.5 ×. The “fold change increase in E22 trunc mRNA levels relative to (−) ASO (100 μM)” value (SD-10 100 μM, 16HBEge-W1282X) is given as 5.1 ×.

Turning to “ataaggtaaaagtgatgggatc (antisense ATAAGGTAAAAGTGATGGGATC; all 2'-MOE, all phosphorothioate, methylation of C not given here) [SA8, PS backbone, 2′-MOE]”, the “Exon 22 truncated CFTR mRNA” value is “about 30000 copies per 40 ng RNA”. Moreover, where the note is “16HBEge-W1282X”, the “expression of Exon 22 truncated CFTR mRNA enhanced by” value is “about 100%”. Further, under “16HBEge-W1282X, listed as SA08”, the “amount … compared to no ASO treatment” value was “increased”. For the same substance, the “amount … compared to no ASO treatment” value (16HBEge-W1282X, listed as SA-08) was “significantly increase”.

Consider “elexacaftor/ivacaftor/tezacaftor [Trikafta]”, for which the “expression of Exon 22 truncated CFTR mRNA, effect of Trikafta treatment” value (16HBEge-W1282X, all groups) is listed as “did not significantly alter”.
